# Patent publication US20230099858A1, “PYRIDOPYRIMIDINE DERIVATIVES AS KRAS INHIBITORS” (BETA PHARMA, INC., priority 2020, published 2023)
# Counter-ions that a name gives are not always drawn. Like-named read-outs stand apart in the source and are kept apart here.
# Target: T1, KRAS G12C (Homo sapiens, UniProt P01116, G12C)
# T1 construct: aa 2-169, expressed in E. coli; His-tag (TEV cleavable) (N); purchased Reaction Biology Corporation (RBC); host or cells: E. coli
# Test: KRAS G12C/SOS1 Nucleotide Exchange Assay (SOS1-mediated Bodipy-GDP to GTP exchange)
# Format: biochemical
# Settings: for IC50: substrate Bodipy-GDP/Kras G12C, 30 min pre-incubation at RT
# Procedure: Reaction Buffer: 40 mM HEPES 7.4, 10 mM MgCl2, 1 mM DTT 0.002% Triton X100, 0.1% DMSO (final).
# In addition, the final assay volume was 15 μL.
# Reaction Procedure: • 1. Deliver 10 uL of 1.5× KRAS solution in freshly prepared reaction buffer to reaction wells. • 2. Deliver compounds in 100% DMSO into buffer using acoustic technology (Echo550; nanoliter range). • 3. Incubate compounds with Kras for 30 minutes at room temperature. • 4. Prepare 3× (SOS1+GTP) solution in reaction buffer. • 5. Deliver 5 μL of SOS1+GTP solution into reactions wells (deliver GTP only to column 1 for no SOS1 control). • 6.
# Data Analysis: The fluorescence data was normalized using the equation below and fitted to “one phase exponential decay” equation using GraphPad prism software. The plateau was fixed to zero (use for non-covalent inhibitors) and rate ×1000 was used to calculate the IC50 values. Alternatively, the plateau was unconstrained (for covalent inhibitors) and the span value was used to calculate the IC50 values.
# where Yraw is defined as fluorescence at time t, Ao is the average initial fluorescence with no SOS1, and M is the minimum fluorescence at the end of the reaction at the maximum SOS1.
# The background subtracted signals (no SOS1 protein wells were used as background) were converted to % activity relative to DMSO controls. Data was analyzed using GraphPad Prism 4 with “sigmoidal dose-response (variable slope)”; 4 parameters with Hill Slope. The constraints were bottom (constant equal to 0) and top (must be less than 1).
# [1] = plateau fixed to zero, rate x1000 used, read-out: IC50, Analysis Method: Rate Constant, KRAS G12C
# T1 sequence (P01116 2-169 G12C): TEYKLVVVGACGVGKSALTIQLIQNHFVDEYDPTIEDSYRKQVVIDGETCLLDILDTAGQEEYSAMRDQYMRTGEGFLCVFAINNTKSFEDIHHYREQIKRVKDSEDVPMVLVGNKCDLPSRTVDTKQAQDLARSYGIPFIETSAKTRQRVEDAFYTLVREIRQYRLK
"inhibition at 10 µM (span analysis, no curve fit, highest concentration tested 10 μM, read-out: inhibition, printed in place of an IC50, Analysis Method: Span, KRAS G12C) [%]",IC50 [1] [nM],"IC50 (plateau unconstrained, span value used (for covalent inhibitors), read-out: IC50, Analysis Method: Span, KRAS G12C) [nM]",Compound
< 65,58,,"C=CC(=O)N1CCN(c2nc(OCC3CCCN3C)nc3nc(-c4cccc5cccc(Cl)c45)ccc23)C[C@H]1C (stereo partly drawn) [Example 1, 1-[(2R)-4-[7-(8-Chloronaphthalen-1-yl)-2-[(1-methylpyrrolidin-2-yl)methoxy]pyrido[2,3-d]pyrimidin-4-yl]-2-methylpiperazin-1-yl]prop-2-en-1-one]"
,8,25,"C=CC(=O)N1CCN(c2nc(OC[C@@H]3CCCN3C)nc3nc(-c4cccc5cccc(Cl)c45)ccc23)C[C@@H]1CC#N [Example 2, 2-((S)-1-Acryloyl-4-(7-(8-chloronaphthalen-1-yl)-2-(((S)-1-methylpyrrolidin-2-yl)methoxy)pyrido[2,3-d]pyrimidin-4-yl)piperazin-2-yl)acetonitrile trifluoroacetate (1:1)]"
